Data from US11174251B2, “Compositions and methods for inhibition of the JAK pathway” (Rigel Pharmaceuticals, Inc., priority 2010, dated 2021).
pIC50: −log10 of the molar value. Where a name gives a salt, the structure may show the parent alone.

Target: T1, JAK3 (Homo sapiens, UniProt P52333)
T1 construct: The Ramos B-cell line was acquired from ATCC (ATCC Catalog No. CRL-1596); host or cells: Ramos B-cell line (human)
T1 sequence (P52333 1-1124): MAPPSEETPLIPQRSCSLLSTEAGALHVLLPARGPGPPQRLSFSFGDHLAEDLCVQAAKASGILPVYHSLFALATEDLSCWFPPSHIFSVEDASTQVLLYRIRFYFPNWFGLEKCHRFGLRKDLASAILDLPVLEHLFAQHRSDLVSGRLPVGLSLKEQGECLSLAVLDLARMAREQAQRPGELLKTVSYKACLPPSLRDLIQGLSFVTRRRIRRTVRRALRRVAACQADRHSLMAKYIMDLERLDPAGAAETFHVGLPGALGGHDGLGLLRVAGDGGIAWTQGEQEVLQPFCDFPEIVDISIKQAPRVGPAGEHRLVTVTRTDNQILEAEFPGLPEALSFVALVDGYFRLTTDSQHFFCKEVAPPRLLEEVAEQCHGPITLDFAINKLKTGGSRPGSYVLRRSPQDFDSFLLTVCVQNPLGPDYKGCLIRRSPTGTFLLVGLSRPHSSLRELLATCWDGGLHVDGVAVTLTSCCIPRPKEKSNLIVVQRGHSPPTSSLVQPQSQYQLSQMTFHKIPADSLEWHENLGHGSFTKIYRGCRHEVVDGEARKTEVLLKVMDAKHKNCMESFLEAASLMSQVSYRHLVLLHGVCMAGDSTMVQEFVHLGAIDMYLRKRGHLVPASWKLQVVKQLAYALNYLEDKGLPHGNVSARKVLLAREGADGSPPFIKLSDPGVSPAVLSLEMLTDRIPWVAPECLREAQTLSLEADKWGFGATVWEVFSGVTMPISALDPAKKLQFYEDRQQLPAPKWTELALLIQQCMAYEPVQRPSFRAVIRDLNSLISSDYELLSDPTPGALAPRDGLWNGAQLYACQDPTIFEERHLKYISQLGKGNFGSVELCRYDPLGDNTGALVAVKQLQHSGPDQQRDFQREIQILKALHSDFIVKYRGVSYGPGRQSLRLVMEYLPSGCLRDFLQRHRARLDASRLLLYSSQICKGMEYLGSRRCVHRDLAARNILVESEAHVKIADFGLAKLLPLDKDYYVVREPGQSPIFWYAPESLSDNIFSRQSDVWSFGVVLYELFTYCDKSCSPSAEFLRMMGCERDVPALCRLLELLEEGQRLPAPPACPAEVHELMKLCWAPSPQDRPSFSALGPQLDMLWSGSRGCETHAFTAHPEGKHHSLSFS
Assay: Assay for CD23 expression on Ramos B-cells stimulated by IL-4 (Table IV: ability to inhibit JAK3 activity)
Format: cell-based
Details: tested under conditions described in Example 3 (so in the source)
From the text: One means of assaying for such inhibition is detection of the effect of the 2,4-pyrimidinediamine compounds on the upregulation of downstream gene products. In the Ramos/IL4 assay, B-cells are stimulated with the cytokine Interleukin-4 (IL-4) leading to the activation of the JAK/Stat pathway through phosphorylation of the JAK family kinases, JAK1 and JAK3, which in turn phosphorylate and activate the transcription factor Stat-6. […] To study the effect of inhibitors (for example, the 2,4-substituted pyrimindinediamine compounds described herein) on the JAK1 and JAK3 kinases, human Ramos B cells are stimulated with human IL-4. 20 to 24 hours post stimulation, cells are stained for upregulation of CD23 and analyzed using FACS.
B-cells stimulated with cytokine Interleukin-4 (IL-4) activate the JAK/Stat pathway through phosphorylation of the JAK family kinases, JAK-1 and JAK-3, which in turn phosphorylate and activate the transcription factor Stat-6. […] To study the effect of inhibitors on the JAK family kinases, human Ramos B cells were stimulated with human IL-4 and the surface expression of CD23 was measured.
The day before the experiment, Ramos B-cells were diluted to 3.5×10^5 cells/mL to ensure that they were in a logarithmic growth phase.
Cells were spun down and suspended in RPMI with 5% serum. 5×10^4 cells were used per point in a 96-well tissue culture plate. Cells were pre-incubated with compound or DMSO (Sigma-Aldrich, St. Louis, Mo., Cat No. D2650) vehicle control for 1 hour in a 37° C. incubator. Cells were then stimulated with IL-4 (Peprotech Inc., Rocky Hill, N.J., Cat No. 200-04) for a final concentration of 50 units/mL for 20-24 hours. […] Detection was performed using a BD LSR I System Flow Cytometer, purchased from Becton Dickinson Biosciences of San Jose, Calif.
The compound designations in Table IV are consistent with those of Tables I-II above.

| pIC50 | SMILES |
| --- | --- |
| > 6.30 | COc1c(C)ccc(Nc2ncc(C)c(Nc3ccc4oc(=O)[nH]c4c3)n2)c1F [Compound I-29, 5-[2-(2-Fluoro-3-methoxy-4-methyl-phenylamino)-5-methyl-pyrimidin-4-ylamino]-3H-benzooxazol-2-one trifluoroacetate salt] |
| 5.30 to 6.30 | COc1cc(Nc2ncc(C)c(Nc3ccc4oc(=O)[nH]c4c3)n2)c(F)cc1C [Compound I-122, 5-(2-(2-fluoro-5-methoxy-4-methylphenylamino)-5-methylpyrimidin-4-ylamino)benzo[d]oxazol-2(3H)-one trifluoroacetate salt] |
| > 6.30 | COC(=O)c1cnc(Nc2cc(C)c(C)c(C)c2)nc1Nc1ccc2oc(=O)[nH]c2c1 [Compound I-40, 4-(2-Oxo-2,3-dihydro-benzooxazol-5-ylamino)-2-(3,4,5-trimethyl-phenylamino)-pyrimidine-5-carboxylic acid methyl ester trifluoroacetate salt] |
| > 6.30 | Cc1cnc(Nc2ccc3c(c2)C(=O)NC3)nc1Nc1ccc2oc(=O)[nH]c2c1 [II-11, 5-methyl-N4-(2-oxo-2,3-dihydro-1,3-benzoxazol-5-yl)-N2-(1-oxo-1,3-dihydro-2H-isoindol-6-yl)-2,4-pyrimidinediamine] |
| > 6.30 | COc1cc(Nc2ncc(C)c(Nc3ccc4oc(=O)[nH]c4c3)n2)ccn1 [II-17, N2-(2-methoxypyridin-4-yl)-5-methyl-N4-(2-oxo-2,3-dihydro-1,3-benzoxazol-5-yl)-2,4-pyrimidinediamine] |
| > 6.30 | COC(=O)c1cc(Nc2ncc(C)c(Nc3ccc4oc(=O)[nH]c4c3)n2)cc(C)c1F [Compound I-153, N2-(4-fluoro-3-methoxycarbonyl-5-methyl)phenyl-5-methyl-N4-(2-oxo-2,3-dihydro-1,3-benzoxazol-5-yl)-2,4-pyrimidinediamine] |
| 5.00 to 5.30 | COc1cc(Nc2ncc(F)c(Nc3ccc4oc(=O)[nH]c4c3)n2)c(F)cc1C [Compound I-123, 5-(5-fluoro-2-(2-fluoro-5-methoxy-4-methylphenylamino)pyrimidin-4-ylamino)benzo[d]oxazol-2(3H)-one trifluoroacetate salt] |

More lines, now with the values behind:

| SMILES | pIC50 |
| --- | --- |
| Cc1cc(C)cc(Nc2ncc(F)c(Nc3cc(F)c4oc(=O)[nH]c4c3)n2)c1 [Compound I-187, 5-(2-(3,5-dimethylphenylamino)-5-fluoropyrimidin-4-ylamino)-7-fluorobenzo[d]oxazol-2(3H)-one trifluoroacetate salt] | > 6.30 |
| COC(=O)c1cnc(Nc2cc(C)c(F)c(OC)c2)nc1Nc1ccc2oc(=O)[nH]c2c1 [Compound I-58, 2-(4-Fluoro-3-methoxy-5-methyl-phenylamino)-4-(2-oxo-2,3-dihydro-benzooxazol-5-ylamino)-pyrimidine-5-carboxylic acid methyl ester trifluoroacetate salt] | < 5.00 |
| COc1cc(C)cc(Nc2ncc(F)c(Nc3cc(C)c4oc(=O)[nH]c4c3)n2)c1 [Compound I-177, 5-(2-(3-methoxy-5-methylphenylamino)-5-fluoropyrimidin-4-ylamino)-7-methylbenzo[d]oxazol-2(3H)-one trifluoroacetate salt] | < 5.00 |
| Cc1cc(Nc2nc(Nc3cccc(S(C)(=O)=O)c3)ncc2F)cc2[nH]c(=O)oc12 [Compound I-172, 5-(2-(3-(methylsulfonyl)phenylamino)-5-fluoropyrimidin-4-ylamino)-7-methylbenzo[d]oxazol-2(3H)-one trifluoroacetate salt] | > 6.30 |
| COc1cc(Nc2ncc(F)c(Nc3cc(F)c4oc(=O)[nH]c4c3)n2)cc(C)c1C [Compound I-112, 7-fluoro-5-(5-fluoro-2-(3-methoxy-4,5-dimethylphenylamino)pyrimidin-4-ylamino)benzo[d]oxazol-2(3H)-one trifluoroacetate salt] | > 6.30 |
| CC(C)NC(=O)c1ccc(Nc2ncc(F)c(Nc3ccc4oc(=O)[nH]c4c3)n2)cc1 [Compound I-163, 4-(5-fluoro-4-(2-oxo-2,3-dihydrobenzo[d]oxazol-5-ylamino)pyrimidin-2-ylamino)-N-isopropylbenzamide formate salt] | > 6.30 |
| Cc1cc(Nc2ncc(CN3CCCC3)c(Nc3ccc4oc(=O)[nH]c4c3)n2)cc(C)c1C [Compound I-98, 5-(2-(3,4,5-trimethylphenylamino)-5-((pyrrolidin-1-yl)methyl)pyrimidin-4-ylamino)benzo[d]oxazol-2(3H)-one] | 5.00 to 5.30 |
| NS(=O)(=O)c1cccc(Nc2ncc(F)c(Nc3cc(F)c4oc(=O)[nH]c4c3)n2)c1 [Compound I-174, 3-(5-fluoro-4-(7-fluoro-2-oxo-2,3-dihydrobenzo[d]oxazol-5-ylamino)pyrimidin-2-ylamino)benzenesulfonamide trifluoroacetate salt] | > 6.30 |
| COc1ccc(Nc2ncc(F)c(Nc3ccc4oc(=O)[nH]c4c3)n2)cc1-c1ccncc1 [Compound I-208, 5-(2-(4-methoxy-3-(pyridin-4-yl)phenylamino)-5-fluoropyrimidin-4-ylamino)benzo[d]oxazol-2(3H)-one formate salt] | > 6.30 |
| COc1c(F)ccc(Nc2ncc([N+](=O)[O-])c(Nc3ccc4oc(=O)[nH]c4c3)n2)c1F [Compound I-43, 5-(2-(2,4-difluoro-3-methoxyphenylamino)-5-nitropyrimidin-4-ylamino)benzo[d]oxazol-2(3H)-one trifluoroacetate salt] | < 5.00 |
| Cc1cnc(Nc2cc(C)c(C)c(C)c2)nc1Nc1ccc2oc(=O)n(C)c2c1 [Compound I-126, 5-(2-(3,4,5-trimethylphenylamino)-5-methylpyrimidin-4-ylamino)-3-methylbenzo[d]oxazol-2(3H)-one trifluoroacetate salt] | > 6.30 |
| CCCNC(=O)c1ccc(Nc2ncc(F)c(Nc3ccc4oc(=O)[nH]c4c3)n2)cc1 [Compound I-160, 4-(5-fluoro-4-(2-oxo-2,3-dihydrobenzo[d]oxazol-5-ylamino)pyrimidin-2-ylamino)-N-propylbenzamide formate salt] | > 6.30 |
| COc1cc(C)cc(Nc2ncc(F)c(Nc3cc(F)c4oc(=O)[nH]c4c3)n2)c1 [Compound I-179, 5-(2-(3-methoxy-5-methylphenylamino)-5-fluoropyrimidin-4-ylamino)-7-fluorobenzo[d]oxazol-2(3H)-one trifluoroacetate salt] | < 5.00 |
| COC(=O)c1cnc(Nc2ccc(C(N)=O)cc2)nc1Nc1ccc2oc(=O)[nH]c2c1 [Compound I-54, 2-(4-Carbamoyl-phenylamino)-4-(2-oxo-2,3-dihydro-benzooxazol-5-ylamino)-pyrimidine-5-carboxylic acid methyl ester trifluoroacetate salt] | < 5.00 |
| O=c1[nH]c2cc(Nc3nc(Nc4ccccc4)ncc3[N+](=O)[O-])ccc2o1 [Compound I-41, 5-(5-nitro-2-(phenylamino)pyrimidin-4-ylamino)benzo[d]oxazol-2(3H)-one trifluoroacetate salt] | 5.00 to 5.30 |
| NC(=O)c1ccc(Nc2ncc(Cl)c(Nc3ccc4oc(=O)[nH]c4c3)n2)cc1 [Compound I-11, 4-(5-chloro-4-(2-oxo-2,3-dihydrobenzo[d]oxazol-5-ylamino)pyrimidin-2-ylamino)benzamide trifluoroacetate salt] | > 6.30 |
